Measured values from patent US20250082781A1, “METHODS OF LOWERING BLOOD GLUCOSE AND TREATING TYPE 2 DIABETES BY ACTIVATION OF PDE4D3” (Salk Institute for Biological Studies, priority 2021, published 2025).

Key:
serum FFA levels = experiment: Serum FFA levels in DIO mice; type: in vivo, mouse; conditions: FGF1 0.5 mg/kg s.c.
Protocol: Mice were kept in 12 h light/dark cycle in a temperature-controlled environment. Mice had free access to food and water unless noted otherwise. C57/B6 mice background was used unless noted otherwise. C57BL/6J and ob/ob (000632-B6. Cg-Lepob/J) male mice were obtained from Jackson Laboratory. PDE4D knock-out mice (034588-UCD) were obtained from MMRRC. For diet-induced obesity (DIO) studies, mice were fed a high fat diet (HFD) (60% fat, F3282; Bio-Serv) for minimum of 12 weeks to induce insulin resistance when diet-induced obese model is used. Insulin levels and blood glucose levels were monitored to confirm insulin resistance. To generate adipose-specific FGFR1 deletion, adiponectin-cre mice (B6; FVB-Tg (Adipoq-cre)1Evdr/J; Stock: 010803) were crossed to Fgfr1 flox/flox (B6.129S4-Fgfr1tm5.1Sor/J; Stock: 00767) mice. For AAV mediated expression of target proteins in adipose tissue, 5×10E+11 genomic copies of AAV were injected via tail vein or retro-orbital route.
Recombinant FGF1 (rFGF1) was dissolved in phosphate-buffered saline (PBS) at a concentration of 0.2 mg/ml and was injected subcutaneously at a 0.5 mg kg^−1 dose. Blood glucose was monitored at indicated time points after injection. For initial measurements (2-4 h) food was removed after injection to exclude any indirect effects stemming from anorexigenic effects of FGF1. PDE4 inhibitor roflumilast stock in DMSO was diluted at 1 mg/ml in 30% captisol, pH 10 and delivered to mice thorough oral gavage at 5 mg kg^−1 dose. PDE3 inhibitor cilostamide stock in DMSO was diluted at 2 mg/ml in 30% captisol and delivered through intraperitoneal injection at 10 mg kg^−1 dose.

oleic acid turnover = experiment: 3H-labeled oleic acid turnover (in vivo lipolysis); set-up: species or system mouse
Protocol: FIGS. 1A-1I: FGF1 suppresses adipose lipolysis. (FIG. 1A) Ex-vivo lipolysis in gonadal white adipose tissue (gWAT) explants from wildtype (F1WT) and FGF1 KO (FIKO) mice 6 h after refeeding. Data are represented as mean±SEM (n=4, *p<0.05). (FIG. 1B) Lipolysis in mouse SVF-derived adipocytes measured by the cumulative release of free fatty acids (FFAs) into the media over 4 h. Cells were pretreated with vehicle (PBS) or FGF1 (100 ng/ml) for 10 min prior to the induction of lipolysis with 1 nM isoproterenol (ISO). Data are represented as mean±SEM (n=3, *p<0.05, **p<0.01). (FIG. 1C) Dose response of FGF1-induced suppression of lipolysis in 3T3-L1 adipocytes. Cells were pretreated with the indicated doses of FGF1 for 10 min prior to the induction of lipolysis with 100 nM isoproterenol (ISO), and the cumulative release of FFAs over 4 h was measured. Data are represented as mean±SEM (n=3, **p<0.01, ***p<0.001). […] Plasma radioactivity was measured by scintillation counting and normalized to t=1 min. Fractional oleic acid turnover rate was calculated by linear regression of natural log transformed data (adR1WT vehicle n=5, FGF1 n=4; adR1KO vehicle n=4, FGF1 n=5). […] Quantification of pHSL-S660 normalized to total HSL is shown in the right panel. […] Quantification of pHSL-S660 normalized to total HSL (right panel). […]

Substance: FGF1: Recombinant fibroblast growth factor 1 protein, dissolved in PBS, injected subcutaneously
- serum FFA levels (serum FFA levels; overnight fasted DIO adR1KO mice): failed to affect adR1KO mice
- reduction of serum FFA levels (serum FFA levels; overnight fasted DIO adR1WT mice, 30 min): ~30%
- oleic acid turnover (oleic acid turnover; adR1KO mice, FGF1 pretreatment): not affected
- fractional turnover rate of oleic acid (oleic acid turnover; adR1WT mice, FGF1 0.5 mg/kg s.c. 6 h before infusion): reduced
